Data on 2 compounds can be found in patent publication US9393192B2, “Methods and dosage forms for controlled delivery of paliperidone and risperidone” (ALZA CORPORATION, priority 2002, dated 2016).

Data set [1] in a line: stability testing / degradation of paliperidone. The class given is physicochemical. To be noted: stress conditions, stability testing (FIGS. 7, 8, 9A, 9B). The source says: FIGS. 8, 9A and 9B illustrate the increased stability of paliperidone in the dosage forms incorporating the protective subcoat compared to dosage forms not incorporating the protective subcoat.
The conditions of data set [2]: cited from earlier work.
The conditions of data set [3]: in vivo; cited from earlier work.

For the compound `Cc1nc2n(c(=O)c1CCN1CCC(c3noc4cc(F)ccc34)CC1)CCCC2O` (stereo not shown) [paliperidone], in data set [1], the degradation / stability entry is on record as “degrades into notable amounts of impurities”. In data set [2], the solubility in water entry is “practically insoluble in water”. Moreover, the half-life entry in data set [3] is on record as “about one”.
For the compound `Cc1nc2n(c(=O)c1CCN1CCC(c3noc4cc(F)ccc34)CC1)CCCC2` [risperidone], in data set [2], the solubility in water entry was “practically insoluble in water”.
